Laboratory results: EP2284178A2, “Inhibitors of cancer cell, T-cell and keratinocyte proliferation” (4SC AG, priority 2005, dated 2007)

Target: T1, human Proteasome (Homo sapiens, UniProt P28074)
T1 construct: purchased Immatics, Tübingen
Assay: chymotryptic activity of the 20S proteasome (Suc-LLVT-AMC substrate, fluorescence)
Type: biochemical
Details: for human Proteasome IC50: result given in words
Description: The chymotryptic activity of the 20S proteasome (Immatics, Tübingen) was determined using a Tecan Ultra plate reader and Suc-LLVT-AMC as substrate (Bachem). In the wells of a black 96 well polypropylene plate, 2 µl of the respective inhibitor dissolved in DMSO were mixed with 50 µl substrate solution (25 mM HEPES pH 7.5 at 20°C, 0.5 mM EDTA and Suc-LLVT-AMC (in the appropriate concentration) and the reaction was initiated by adding 150 µl proteasome solution (1.3 µg/ml 20S proteasome in 25 mM HEPES pH 7.5 at 20°C, 0.5 mM EDTA, 0.033% (w/v) SDS). Substrate hydrolysis was followed by fluorescence spectroscopy (excitation wavelength: 360 nm; emission wavelength: 465 nm) for 20 min at 30°C and initial velocities were calculated and expressed as change in relative fluorescence units (RFU) per second.

`O=C1CN(/N=C/C(Cc2ccccc2)NC(=O)c2csc(-c3ccc4c(c3)CCO4)n2)C(=O)N1` (stereo not drawn) [Compound 10] showed an IC50 (unit printed as µm) of 3.5 µM.
`CC(C)(C)OC(=O)NC(Cc1ccc(Br)cc1)C(=O)NC(Cc1ccc2ccccc2c1)C(=O)NC(C=NN1CC(=O)NC1=O)Cc1ccccc1` (stereo not drawn) [Compound 7] was tested, and the “human Proteasome IC50” value was “nanomolar”.
In the case of `O=C1CN(N=CC(Cc2ccccc2)NC(=O)C(Cc2ccc3ccccc3c2)NC(=O)C(Cc2ccc(F)cc2)NC(=O)OCc2ccccc2)C(=O)N1` (stereo not drawn) [Compound 9], the “human Proteasome IC50” value is reported as “nanomolar”.
